The structures appear in SMILES notation.

The values that follow come from US9737078B2, “Compositions comprising a biological control agent and an insecticide” (priority 2012, dated 2017).

One data set deals with Myzus persicae. Nature of the data set: Myzus persicae spray test (MYZUPE), Chinese cabbage leaf-disks. In kind it is in vivo. Here is the method: (§1) For all examples efficiencies of the compositions comprising at least one BCA and at least one specific insecticide has been determined by the “Colby-formula”: The expected efficacy of a given combination of two compounds is calculated as follows (see Colby, S. R., “Calculating Synergistic and antagonistic Responses of Herbicide Combinations”, Weeds 15, pp. 20-22, 1967):
(§2) If • X is the efficacy expressed in % mortality of the untreated control for test compound A at a concentration of m ppm respectively m g/ha, • Y is the efficacy expressed in % mortality of the untreated control for test compound B at a concentration of n ppm respectively n g/ha, • E is the efficacy expressed in % mortality of the untreated control using the mixture of A and B at m and n ppm respectively m and n g/ha, • then is E=X+Y−(X×Y/100)
(§3) If the observed insecticidal efficacy of the combination is higher than the one calculated as “E”, then the combination of the two compounds is more than additive, i.e., there is a synergistic effect.
To produce a suitable preparation of active compound, 1 part by weight of active compound is mixed with the stated amount of solvent and emulsifier, and the concentrate is diluted with emulsifier-containing water to the desired concentration. To produce a suitable preparation of a spore suspension the spores are diluted with emulsifier-containing water to the desired concentration. Chinese cabbage (Brassica pekinensis) leaf-disks infected with all instars of the green peach aphid (Myzus persicae), are sprayed with a preparation of the active ingredient of the desired concentration.
After the specified period of time, mortality in % is determined. 100% means all aphids have been killed; 0% means none of the aphids have been killed. The mortality values determined thus are recalculated using the Colby-formula (see above).

Another data set relates to Tetranychus urticae. The data set can be described thus: Tetranychus urticae spray test, OP-resistant, French beans. Format: in vivo. Here is the method:
as §1, §2, §3
To produce a suitable preparation of active compound, 1 part by weight of active compound is mixed with the stated amount of solvent and emulsifier, and the concentrate is diluted with emulsifier-containing water to the desired concentration. To produce a suitable preparation of a spore suspension the spores are diluted with emulsifier-containing water to the desired concentration. French beans (Phaseolus vulgaris) which are heavily infested with all stages of the two spotted spidermite (Tetranychus urticae), are sprayed with a preparation of the active ingredient of the desired concentration.
After the specified period of time, mortality in % is determined. 100% means all spider mites have been killed and 0% means none of the spider mites have been killed. The mortality values determined thus are recalculated using the Colby-formula (see above).

Take `Cc1cc(C)c(C2=C(OC(=O)CC(C)(C)C)C3(CCCC3)OC2=O)c(C)c1` [Spiromesifen (1222), Spiromesifen]: the “Efficacy in % after 6d (mortality)” value was 70% with Myzus persicae (20 g/ha) and 0% with Tetranychus urticae (0.8 g ai/ha, after 6 d). Moreover, in the data set with Tetranychus urticae (4 g ai/ha, after 2 d), the “Efficacy in % after 2d (mortality)” value came to 0%.
Usually mortality stands for the share of the test organisms that died. `CCOC(=O)OC1=C(c2cc(C)ccc2C)C(=O)N[C@]12CC[C@@H](OC)CC2` [Spirotetramate (1223), Spirotetramat]: the mortality at 0.8 g/ha with Myzus persicae (Myzus persicae, 144 h, 0.8 g/ha, after 6 d, read-out: Efficacy in % after 6d (mortality)) was 0%; with Tetranychus urticae (Tetranychus urticae, 144 h, 0.8 g ai/ha, after 6 d, read-out: Efficacy in % after 6d (mortality)) it was 0%. In addition, the mortality at 4 g/ha in the data set with Myzus persicae (Myzus persicae, 144 h, 4 g/ha, after 6 d, read-out: Efficacy in % after 6d (mortality)) came out at 70%. The mortality at 20 g/ha in the data set with Tetranychus urticae (Tetranychus urticae, 48 h, 20 g ai/ha, after 2 d, read-out: Efficacy in % after 2d (mortality)) came to 0%.
